# Source: PubChem BioAssay AID248 (DTP/NCI, 2004)
# Several values for one entry are separate records, joined by “and”; a condition that tells them apart may be missing. Equal values may be shown once. Toxic doses and inconclusive results are not listed.
# Tested on: L1210 leukemia ip in BDF1 mice, survival T/C
# Assay: NCI In Vivo Anticancer Drug Screen. Data for tumor model L1210 Leukemia (intraperitoneal) in B6D2F1 (BDF1) mice
# Details: endpoint: mean survival time, higher = longer survival
# Summary of the method: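 Transplanted-tumor mice were given test agent; controls received vehicle only. Survival readings from the two groups were divided (treated over control).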
# [1] = dose: 100.0 mg/kg/injection, schedule: Q01DX009 (ip), vehicle: saline with Tween-80
# [2] = dose: 100.0 mg/kg/injection, schedule: Q04DX003 (ip), vehicle: saline with Tween-80
# [3] = dose: 200.0 mg/kg/injection, schedule: Q01DX009 (ip), vehicle: saline with Tween-80
# [4] = dose: 200.0 mg/kg/injection, schedule: Q04DX003 (ip), vehicle: saline with Tween-80
# [5] = dose: 400.0 mg/kg/injection, schedule: Q04DX003 (ip), vehicle: saline with Tween-80
# [6] = dose: 100.0 mg/kg/injection, schedule: Q01DX001 (ip), vehicle: carboxymethylcellulose (CMC)
# [7] = dose: 200.0 mg/kg/injection, schedule: Q01DX001 (ip), vehicle: carboxymethylcellulose (CMC)
# [8] = dose: 400.0 mg/kg/injection, schedule: Q01DX001 (ip), vehicle: carboxymethylcellulose (CMC)
# [9] = dose: 100.0 mg/kg/injection, schedule: Q04DX003 (ip), vehicle: Klucel (hydroxypropylcellulose) (HPC)
# [10] = dose: 100.0 mg/kg/injection, schedule: Q01DX001 (ip), vehicle: saline
# [11] = dose: 200.0 mg/kg/injection, schedule: Q01DX001 (ip), vehicle: saline
# [12] = dose: 400.0 mg/kg/injection, schedule: Q01DX001 (ip), vehicle: saline
# [13] = dose: 100.0 mg/kg/injection, schedule: Q04DX002 (ip), vehicle: saline
# [14] = dose: 200.0 mg/kg/injection, schedule: Q04DX002 (ip), vehicle: saline
# [15] = dose: 50.0 mg/kg/injection, schedule: Q01DX009 (ip), vehicle: saline with Tween-80
# [16] = dose: 100.0 mg/kg/injection, schedule: Q01DX001 (ip), vehicle: saline with Tween-80
# [17] = dose: 200.0 mg/kg/injection, schedule: Q01DX001 (ip), vehicle: saline with Tween-80
# [18] = dose: 400.0 mg/kg/injection, schedule: Q01DX001 (ip), vehicle: saline with Tween-80
# [19] = dose: 200.0 mg/kg/injection, schedule: Q04DX003 (ip), vehicle: Klucel (hydroxypropylcellulose) (HPC)
# [20] = dose: 400.0 mg/kg/injection, schedule: Q04DX003 (ip), vehicle: Klucel (hydroxypropylcellulose) (HPC)
# [21] = dose: 50.0 mg/kg/injection, schedule: Q01DX001 (ip), vehicle: carboxymethylcellulose (CMC)
structure (smiles),measurement,setting,value
NC(=O)CCC(N)C(=O)O (stereo not given),T/C,"dose: 6.25 mg/kg/injection, schedule: Q01DX009 (ip), vehicle: saline",108 % of control
same,T/C,[1],97 % of control
same,T/C,[2],94 % of control
same,T/C,[3],90 % of control
same,T/C,[4],93 % of control
same,T/C,"dose: 400.0 mg/kg/injection, schedule: Q01DX009 (ip), vehicle: saline with Tween-80",93 % of control
same,T/C,[5],96 % of control
CCOC(=O)C1(CCOC(C)=O)CCCCC1=O (stereo not given),T/C,[6],93 % of control
same,T/C,[7],93 % of control
same,T/C,[8],102 % of control
CCCCCCCCCCCCCCCC/C(C)=C\C(=O)OC,T/C,"dose: 100.0 mg/kg/injection, schedule: Q04DX003 (ip), vehicle: other",93 % of control
same,T/C,"dose: 200.0 mg/kg/injection, schedule: Q04DX003 (ip), vehicle: other",93 % of control
same,T/C,"dose: 400.0 mg/kg/injection, schedule: Q04DX003 (ip), vehicle: other",93 % of control
O=C(N/N=C\c1ccc([N+](=O)[O-])cc1)c1ccco1,T/C,"dose: 100.0 mg/kg/injection, schedule: Q01DX001 (ip), vehicle: other",93 % of control
same,T/C,"dose: 200.0 mg/kg/injection, schedule: Q01DX001 (ip), vehicle: other",93 % of control
same,T/C,"dose: 400.0 mg/kg/injection, schedule: Q01DX001 (ip), vehicle: other",93 % of control
Nc1nc(=S)c2[nH]c(N=Nc3ccc(S(=O)(=O)O)cc3)nc2[nH]1,T/C,"dose: 25.0 mg/kg/injection, schedule: Q01DX009 (ip), vehicle: Klucel (hydroxypropylcellulose) (HPC)",100 % of control
same,T/C,"dose: 50.0 mg/kg/injection, schedule: Q01DX009 (ip), vehicle: Klucel (hydroxypropylcellulose) (HPC)",102 % of control
same,T/C,"dose: 50.0 mg/kg/injection, schedule: Q04DX003 (ip), vehicle: Klucel (hydroxypropylcellulose) (HPC)",114 % of control
same,T/C,"dose: 100.0 mg/kg/injection, schedule: Q01DX009 (ip), vehicle: Klucel (hydroxypropylcellulose) (HPC)",102 % of control
same,T/C,[9],153 % of control
N#CC1C(=O)NC(c2ccccc2)=CC1c1ccccc1 (stereo not given),T/C,[10],100 % of control
same,T/C,[11],94 % of control
same,T/C,[12],94 % of control
CN(Cc1cnc2nc(N)nc(N)c2n1)c1ccc(C(=O)NC(CCC(=O)O)C(=O)O)cc1[N+](=O)[O-] (stereo not given),T/C,"dose: 2.5 mg/kg/injection, schedule: Q01DX009 (ip), vehicle: sodium bicarbonate",155 % of control
same,T/C,"dose: 5.0 mg/kg/injection, schedule: Q01DX009 (ip), vehicle: sodium bicarbonate",112 % of control
same,T/C,"dose: 10.0 mg/kg/injection, schedule: Q01DX009 (ip), vehicle: sodium bicarbonate",90 % of control
O=c1[nH]c2ccccc2c2ccc(Cl)cc12,T/C,[6],103 % of control
same,T/C,[7],100 % of control
same,T/C,[8],102 % of control
CN(C)CCCCNc1ccc(NCCCCN(C)C)c2c1C(=O)c1c(O)ccc(O)c1C2=O,T/C,[13],99 % of control
same,T/C,[14],105 % of control
CC(=O)OC1CCC2C3CCC4=C(Cl)C(=O)CCC4C3CCC12C (stereo not given),T/C,"dose: 100.0 mg/kg/injection, schedule: Q01DX009 (sc), vehicle: steriod suspending solution",103 % of control
same,T/C,"dose: 200.0 mg/kg/injection, schedule: Q01DX009 (sc), vehicle: steriod suspending solution",102 % of control
same,T/C,"dose: 400.0 mg/kg/injection, schedule: Q01DX009 (sc), vehicle: steriod suspending solution",100 % of control
CNC(=O)OC1CCCCC1CN(C)C (stereo not given),T/C,"dose: 55.0 mg/kg/injection, schedule: Q01DX Z (ip), vehicle: saline",91 % of control
same,T/C,"dose: 83.0 mg/kg/injection, schedule: Q01DX Z (ip), vehicle: saline",109 % of control
same,T/C,"dose: 125.0 mg/kg/injection, schedule: Q01DX Z (ip), vehicle: saline",113 % of control
O=c1oc(-c2cccc([N+](=O)[O-])c2)nc2ccccc12,T/C,[15],97 % of control
same,T/C,[1],94 % of control
same,T/C,[3],93 % of control
OCC(F)(F)C(F)(F)C(F)(F)CO,T/C,"dose: 100.0 mg/kg/injection, schedule: Q01DX009 (ip), vehicle: saline",87 % of control
same,T/C,"dose: 200.0 mg/kg/injection, schedule: Q01DX009 (ip), vehicle: saline",90 % of control
same,T/C,"dose: 400.0 mg/kg/injection, schedule: Q01DX009 (ip), vehicle: saline",100 % of control
Cc1cc(NC(=O)c2cccc(S(=O)(=O)F)c2)cc(C)c1OCc1nc(N)nc(N)c1-c1ccc(Cl)c(Cl)c1,T/C,[16],97 % of control
same,T/C,[17],88 % of control
same,T/C,[18],101 % of control
Clc1nc2ncn3ncnc3c2[nH]1,T/C,[16],104 % of control
same,T/C,[17],101 % of control
same,T/C,[18],92 % of control
O=[N+]([O-])c1ccc2c(c1)S(=O)c1ccccc1-2 (stereo not given),T/C,[2],109 % of control
same,T/C,[4],94 % of control
Cc1ccc(O)c(S(=O)(=O)F)c1,T/C,[9],104 % of control
same,T/C,[19],102 % of control
same,T/C,[20],102 % of control
O=C1c2nc3ccccc3cc2CN1Cc1ccccc1,T/C,"dose: 10.0 mg/kg/injection, schedule: Q04DX003 (ip), vehicle: alcohol",97 % of control
same,T/C,"dose: 20.0 mg/kg/injection, schedule: Q04DX003 (ip), vehicle: alcohol",96 % of control
same,T/C,"dose: 40.0 mg/kg/injection, schedule: Q04DX003 (ip), vehicle: alcohol",96 % of control
same,T/C,"dose: 80.0 mg/kg/injection, schedule: Q04DX003 (ip), vehicle: alcohol",97 % of control
same,T/C,"dose: 160.0 mg/kg/injection, schedule: Q04DX003 (ip), vehicle: alcohol",92 % of control
O=[N+]([O-])c1ccc2conc2c1,T/C,[21],94 % of control
same,T/C,[6],97 % of control
same,T/C,[7],92 % of control
COc1ccc(CNCCC(=O)O)cc1OC,T/C,[21],107 % of control
same,T/C,[6],100 % of control
same,T/C,[7],105 % of control
same,T/C,[8],105 % of control
CC(=O)Nc1ccc(S(=O)(=O)O)c(OC(C)=O)c1,T/C,[10],100 % of control
same,T/C,[11],93 % of control
same,T/C,[12],114 % of control
COC(CC[P+](c1ccccc1)(c1ccccc1)c1ccccc1)(C(=O)c1ccccc1)c1ccccc1 (stereo not given),T/C,"dose: 15.0 mg/kg/injection, schedule: Q01DX001 (ip), vehicle: carboxymethylcellulose (CMC)",96 % of control
same,T/C,"dose: 30.0 mg/kg/injection, schedule: Q01DX001 (ip), vehicle: carboxymethylcellulose (CMC)",90 % of control
same,T/C,"dose: 60.0 mg/kg/injection, schedule: Q01DX001 (ip), vehicle: carboxymethylcellulose (CMC)",89 % of control
COc1cc(/C=C/C(C)=O)ccc1O,T/C,[15],101 % of control
same,T/C,[1],101 % of control
same,T/C,[2],93 % of control
same,T/C,[3],98 % of control
same,T/C,[4],98 % of control
same,T/C,[5],98 % of control
O=C1C2CCCC3CCCC(C(=O)N1O)C32 (stereo not given),T/C,"dose: 100.0 mg/kg/injection, schedule: Q04DX002 (ip), vehicle: saline with Tween-80",104 % of control
same,T/C,"dose: 200.0 mg/kg/injection, schedule: Q04DX002 (ip), vehicle: saline with Tween-80",99 % of control
same,T/C,"dose: 400.0 mg/kg/injection, schedule: Q04DX002 (ip), vehicle: saline with Tween-80",86 % of control
c1ccc2c(c1)nnn2-c1ccncc1,T/C,[15],92 % of control
same,T/C,[1],98 % of control
same,T/C,[3],90 % of control
CN(C)C(=S)Oc1c(Cl)cc(Cl)cc1S(=O)(=O)F,T/C,[9],104 % of control
same,T/C,[19],98 % of control
same,T/C,[20],98 % of control
COC1OC(CO)C2OC12 (stereo not given),T/C,"dose: 75.0 mg/kg/injection, schedule: Q01DX009 (ip), vehicle: saline",98 % of control and 107 % of control
same,T/C,[10],104 % of control
same,T/C,"dose: 100.0 mg/kg/injection, schedule: Q04DX003 (ip), vehicle: saline",107 % of control and 100 % of control
same,T/C,"dose: 150.0 mg/kg/injection, schedule: Q01DX009 (ip), vehicle: saline",110 % of control and 93 % of control
same,T/C,[11],102 % of control and 96 % of control
same,T/C,"dose: 200.0 mg/kg/injection, schedule: Q04DX003 (ip), vehicle: saline",98 % of control and 89 % of control
same,T/C,"dose: 300.0 mg/kg/injection, schedule: Q01DX009 (ip), vehicle: saline",102 % of control and 100 % of control
same,T/C,[12],104 % of control
same,T/C,"dose: 400.0 mg/kg/injection, schedule: Q04DX003 (ip), vehicle: saline",100 % of control and 104 % of control
CNc1ccccc1C(=O)N/N=C/c1ccc(OC)cc1,T/C,[13],102 % of control
same,T/C,[14],99 % of control
same,T/C,"dose: 400.0 mg/kg/injection, schedule: Q04DX002 (ip), vehicle: saline",102 % of control
